Results: paper PMC4736399 (Oxidative Medicine and Cellular Longevity, 2016)
Values joined by “and” are separate entries in the source; they are usually repeats but may differ in a detail not shown here. Equal values may be shown once. Where a name gives a salt, the structure may show the parent alone.

Legend:
[1] = test system: MAO; assay: Radiochemical assay of [14C]-tyramine oxidation by hAT homogenates; format: biochemical, human; settings: 1 mM [14C]-tyramine, 30 min
Protocol: (§1) Samples of adipose tissue were homogenized as described above. 50 μL of crude homogenates were then incubated for 30 min at 37°C in 200 μL of 200 mM phosphate buffer in the presence of radiolabelled amine after 30 min preincubation without or with inhibitor(s). MAO-dependent oxidation was defined as sensitive to inhibition by 1 mM pargyline, whereas SSAO-dependent oxidation was abolished by 1 mM semicarbazide. Assays were started by addition of the labelled substrate and stopped by adding 50 μL of 4 M HCl. Reaction products of amine oxidation were extracted by 1 mL of organic solvent (toluene/ethyl acetate, 1/1 v/v), according to Tipton's method. Then, 0.7 mL aliquots of the organic phase were counted for radioactivity. Maximal velocity and optimal conditions for determination of amine oxidase activities have been already detailed for human adipocytes, cultured preadipose cells, or hAT homogenates. Thus, inhibition studies were performed only under conditions reaching maximal oxidation velocity, that is, corresponding to the use of tyramine or benzylamine isotopic dilutions giving 1 mM final concentration and reaching approximately 640000 dpm/50 μL for [^14C]-tyramine (provided either by PerkinElmer, Evry, France, or by Sigma-Aldrich) or 200000 dpm/50 μL for [^14C]-benzylamine (NEC 835050UC purchased from PerkinElmer). The radioactivity extracted in the organic phase at time 0 (t0) represented less than 0.5% of the total radioactivity/tube of each labelled amine and was subtracted to all counts with tyramine and benzylamine oxidation without inhibitor averaging 14160 ± 5620 dpm (n = 16) and 15800 ± 1770 dpm (n = 12), respectively. These absolute values, which varied substantially from one individual to another, were set as 100% reference in each subject for the calculation of percentages of inhibition.
Figure 5 Influence of phenolic compounds and MAO inhibitors or SSAO inhibitors on tyramine oxidation by hAT. The production of radiolabelled aldehydes resulting from the 30 min incubation of fat tissue homogenates with 1 mM isotopic dilution of [^14C]-tyramine was set at 100% in the absence of added inhibitor, while the background radioactivity detected at t0 was set at 0%. (a) Inhibition by pargyline only of MAO-dependent tyramine oxidation. (b) Influence of phenolic compounds on tyramine oxidation. Each point is the mean ± SEM of 8 (inhibitors) to 12 (phenolic compounds) homogenates.

[2] = biological target: T1, SSAO (Homo sapiens, UniProt Q16853); assay: Amplex Red fluorometric detection of benzylamine-induced hydrogen peroxide release in human adipose tissue homogenates; format: biochemical; settings: for effect on benzylamine-induced H2O2 release: tested agent at 1 mM, 1 mM benzylamine, hAT homogenates, Amplex Red
T1 construct: benzylamine oxidation by hAT preparations, naturally rich in SSAO/VAP-1; from tissue; host or cells: human subcutaneous abdominal adipose tissue (hAT), crude homogenate
T1 sequence (Q16853 1-763): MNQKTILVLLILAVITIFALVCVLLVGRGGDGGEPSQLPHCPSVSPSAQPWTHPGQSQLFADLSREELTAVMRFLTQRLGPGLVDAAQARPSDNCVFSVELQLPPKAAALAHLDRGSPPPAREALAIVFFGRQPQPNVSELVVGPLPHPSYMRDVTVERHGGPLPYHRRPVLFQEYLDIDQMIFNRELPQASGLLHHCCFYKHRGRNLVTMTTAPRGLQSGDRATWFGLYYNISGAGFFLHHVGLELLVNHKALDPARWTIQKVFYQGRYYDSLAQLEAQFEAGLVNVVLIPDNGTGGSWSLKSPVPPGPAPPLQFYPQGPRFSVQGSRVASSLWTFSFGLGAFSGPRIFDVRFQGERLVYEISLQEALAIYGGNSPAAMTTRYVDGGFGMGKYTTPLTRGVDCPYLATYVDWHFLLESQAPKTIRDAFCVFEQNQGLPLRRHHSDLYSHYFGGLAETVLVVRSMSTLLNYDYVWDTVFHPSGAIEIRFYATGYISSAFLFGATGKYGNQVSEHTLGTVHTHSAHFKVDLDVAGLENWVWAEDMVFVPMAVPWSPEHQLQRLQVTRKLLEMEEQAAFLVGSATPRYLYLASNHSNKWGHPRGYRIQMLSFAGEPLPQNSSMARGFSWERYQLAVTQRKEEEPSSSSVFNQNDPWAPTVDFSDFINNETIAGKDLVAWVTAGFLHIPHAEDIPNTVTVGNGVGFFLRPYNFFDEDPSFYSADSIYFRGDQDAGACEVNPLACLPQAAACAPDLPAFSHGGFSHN
Protocol: (§2) Oxidase activity was measured using the fluorescent probe Amplex Red (10-acetyl-3,7-dihydrophenoxazine) designed for the detection of hydrogen peroxide in biological milieu. Assays were performed accordingly to our previous descriptions, which corresponded to slight modifications from the adaptation of such fluorometric method for MAO activity determination. Briefly, hydrogen peroxide release was quantified owing to a chromogenic mixture containing 40 μM Amplex Red and 4 U/mL horseradish peroxidase and to the parallel use of hydrogen peroxide standard solutions ranging from 0.05 to 5 μM (final concentrations). Thawed hAT samples were homogenized in 200 mM phosphate buffer (pH 7.4) during 30 sec with a homogenizer Tissue Master-125 (Omni International, Kennesaw, GA, USA) just prior to the determination of their amine oxidase activity, as previously reported, except that no antiprotease cocktail was added. Homogenates were distributed in 96-well dark microplates (at 50 ± 5 μg protein/well) and incubated at 37°C in the dark for at least 30 min in 200 μL final volume after a 30 min preincubation without (control) or with 1 mM pargyline or semicarbazide to inhibit MAO or SSAO activity, respectively, or even with both reference inhibitors to abolish all AO activity. All phenolic compounds tested for their inhibitory properties were also added during this preincubation step. Tyramine or benzylamine was added to the medium in order to obtain 1 mM concentration and to serve as substrates for AO activities, as already stated.
(§3) Spontaneous hydrogen peroxide formation by homogenates of thawed material was also quantified without any addition of exogenous amine or inhibitor and defined as basal release. The influence of chemical compounds or biochemical agents on the fluorescence readouts generated by the hydrogen peroxide standard curve was also performed without any presence of hAT in a set of experiments called “without biological material.” In all cases, fluorescence data (ex/em: 540/590 nm) were collected on a Fluoroskan Ascent plate reader (ThermoLabsystems, Finland).
Fluorescence readouts after 30 min incubation were substracted from corresponding values at t0 and net increase was set at 100% for 1 mM benzylamine alone. (a) Pargyline (MAO, dark squares) or semicarbazide (SSAO inhibitor, open squares) was present at indicated final concentrations, while their combination was tested at 1 mM (P + S, black triangle). Mean ± SEM of at least 6 homogenates. (b) The phenolic compounds were tested in parallel at the indicated final concentrations. Means ± SEM of 8 to 12 homogenates.

[3] = test system: human adipocytes; assay: [3H]-2-deoxy-glucose uptake in freshly isolated adipocytes; format: cell-based; settings: phenolic compound 100 μM (P + S 1 mM each), benzylamine stimulation, 45 min incubation
Protocol: To determine glucose transport activity, hAT was grossly minced and digested at 37°C under shaking in 20 mL of Krebs-Ringer medium containing 0.015 mg/mL liberase (type TM, Roche Diagnostics), 15 mM sodium bicarbonate, 10 mM HEPES, and 3.5% bovine serum albumin. Buoyant adipocytes were separated by filtration through nylon screen and carefully washed in the same medium at pH 7.4 without liberase to obtain adipocyte suspensions as already described. Freshly isolated adipocytes were incubated for 45 min with the tested agents just before [^3H]-2-deoxy-glucose uptake assays (PerkinElmer) performed in 10 min at 37°C in plasticware as already described.
Figure 9 Effects of phenolic compounds, benzylamine, and insulin on glucose transport in human adipocytes. Freshly isolated adipocytes were incubated for 45 min without (basal) or with insulin 100 nM (ins.) or with benzylamine and phenolic compounds at the indicated doses. Then 2-DG uptake assays were performed on 10 min as detailed in Section 2. […] Basal, insulin-stimulated, or benzylamine-stimulated 2-DG uptake was tested without (no addition, open columns) or with pargyline + semicarbazide at 1 mM each (P + S, dark columns). Mean ± SEM of 39 cases. Different from basal alone at ^### P < 0.001. Different from benzylamine alone at ^∗∗∗ P < 0.001. (b) Insulin was used as the agent of reference for maximal transport stimulation, set at 100%. Benzylamine was tested at 1 mM alone (control, open column) or in the presence of 100 μM of the indicated phenolic compounds. Mean ± SEM of 7 observations. Different from benzylamine alone at ^∗ P < 0.05 and ^∗∗ P < 0.01.

[4] = Amplex Red-based fluorescence of 5 μM hydrogen peroxide without biological material; settings: read-out: EC50 for lowering the fluorescent signal elicited by 5 μM hydrogen peroxide; without any human biological material, Amplex Red chromogenic mixture
Protocol: as §3
Figure 4 Influence of amine oxidase substrates or inhibitors and phenolic compounds on fluorescent-based detection of hydrogen peroxide. The chromogenic mixture used for Amplex Red-based fluorometric detection of hydrogen peroxide was incubated with 5 μM H2O2 alone (control set at 100%) or in the presence of the indicated final concentrations of tested chemicals. […] Means ± SEM of 7 measurements without any human material.

[5] = biological target: T2, SSAO/VAP-1 (Homo sapiens, UniProt Q16853); assay: Radiochemical assay of [14C]-benzylamine oxidation by hAT homogenates; format: biochemical; settings: 1 mM [14C]-benzylamine, 30 min, up to 1 mM
T2 construct: benzylamine oxidation by hAT preparations, naturally rich in SSAO/VAP-1; from tissue; host or cells: human subcutaneous abdominal adipose tissue (hAT), crude homogenate
T2 sequence (Q16853 1-763): T1 sequence (Q16853 1-763)
Protocol: as §1
Figure 6 Influence of phenolic compounds and MAO inhibitors or SSAO inhibitors on benzylamine oxidation by hAT. (a) Thirty-minute oxidation of 1 mM [^14C]-benzylamine by homogenates generated amounts of radiolabelled benzaldehyde that were separated by extraction as described in Materials and Methods and set at 100% signal (control), while 0% corresponded to the extractible radioactivity at t0. The reference MAO inhibitors (pargyline) or SSAO (semicarbazide) inhibitors were present, separately or in combination at 1 mM, […] before the addition of the radiolabelled substrate. […] Each point is the mean ± SEM of 8 homogenates.

[6] = test system: MAO; assay: Amplex Red fluorometric detection of tyramine-induced hydrogen peroxide release in human adipose tissue homogenates; format: biochemical; settings: for effect on tyramine-induced H2O2 release: 1 mM tyramine, hAT homogenates, Amplex Red, inhibitors 1 μM to 1 mM
Protocol: as §2, §3

[7] = test system: MAO-A; set-up: method as in PMID 19013512; settings: at 10-100 μM, peroxidase-based detection of hydrogen peroxide; cited from earlier work

Structure (SMILES) | effect on [14C]-tyramine oxidation [1] | effect on benzylamine-induced H2O2 release [2] | effect on benzylamine-stimulated deoxyglucose uptake [3] | EC50 [4] | effect on SSAO-mediated [14C]-benzylamine oxidation [5] | further results
COc1cc(/C=C/c2ccc(O)cc2)cc(OC)c1 [pterostilbene] | did not abolish enzyme activity | impaired partially the benzylamine-induced signal | counteracted the effect of 1 mM benzylamine | 5.2 µM | without preventing benzylamine degradation | –
NCc1ccccc1 [benzylamine, benzylamine hydrochloride] | – | – | – | – | – | effect on hydrogen peroxide production by hAT preparations ([2]; 1 mM benzylamine as substrate, 30 min, versus basal): significantly increased the amount of detected hydrogen peroxide
C#CCN(C)Cc1ccccc1 [pargyline] | inhibited | resistant | – | – | could not prevent this type of amine metabolism | proportion of tyramine-induced H2O2 production left unaltered ([6]; 1 mM pargyline alone or with 1 mM semicarbazide, 1 mM tyramine = 100%): approximately 30%; effect on tyramine-induced H2O2 release [6]: inhibited dose-dependently
NNC(N)=O [semicarbazide] | virtually unable to abolish this activity | inhibited | – | – | eradicated the generation of labelled benzaldehyde | proportion of benzylamine-induced H2O2 signal left unaltered ([2]; 1 mM semicarbazide alone or with 1 mM pargyline, 1 mM benzylamine = 100%): 20% and 15–20%; effect on tyramine-induced H2O2 release [6]: totally inefficient
NCCc1ccc(O)cc1 [tyramine, tyramine hydrochloride] | – | – | – | – | – | effect on hydrogen peroxide production by hAT preparations ([6]; 1 mM tyramine as substrate, 30 min, versus basal): to a lesser extent, significantly increased the amount of detected hydrogen peroxide
O=C(O)/C=C/c1ccc(O)c(O)c1 [caffeic acid] | did not abolish enzyme activity | abolished benzylamine-induced signal | No clear-cut inhibition | 3.5 µM | without preventing benzylamine degradation | –
O=c1c(O)c(-c2ccc(O)c(O)c2)oc2cc(O)cc(O)c12 [quercetin] | – | impaired partially the benzylamine-induced signal | counteracted the effect of 1 mM benzylamine | 2 µM | without preventing benzylamine degradation | MAO-A inhibition, in words [7]: inhibit MAO-A in a complete manner
Oc1ccc(/C=C/c2cc(O)cc(O)c2)cc1 [resveratrol, trans-resveratrol] | – | abolished benzylamine-induced signal | counteracted the effect of 1 mM benzylamine | – | without preventing benzylamine degradation | –
